Data taken from patent US20260250337A1, “HYBRID ANTIMICROBIAL PEPTIDES” (UNIVERSIDADE FEDERAL DO ABC, priority 2023, published 2026).
“Also recorded” adds a separate entry of the source. No end group written: not given here.

Assays:
[1] = system: M. luteus A270; assay: Liquid growth inhibition assay, MIC; format: cell-based, Micrococcus luteus; details: 37° C., 18 h
Procedure: (§1) Initially, the antimicrobial activity was determined by liquid growth inhibition assays, as previously described by Pedron et al.^62. Briefly, Peptone Broth and Potato Dextrose Broth (Invitrogen) were used for antibacterial and antifungal assays, respectively. Two-fold serial dilutions of peptides (0.09-50 μmol L^−1) and microorganisms (Serratia marcescens ATCC 4112, Enterobacter cloacae β-12, Micrococcus luteus A270, Bacillus megaterium ATCC 10778, Bacillus subtilis ATCC 6633, Candida albicans MDM8, and Candida tropicalis IOC 4560) were incubated at 37° C. for 18 h (for bacteria) or 24 h (for fungi), and microbial growth was assessed by absorbance measurements at 595 nm. Experiments were performed in three biological repeats.

[2] = system: S. epidermidis ATCC 12228; assay: Liquid growth inhibition assay, MIC; format: cell-based; details: 37° C., 18 h
[3] = system: B. megaterium ATCC 10778; assay: Liquid growth inhibition assay, MIC; format: cell-based, Bacillus megaterium; details: 37° C., 18 h
Procedure: as §1

[4] = system: S. marcescens ATCC 4112; assay: Liquid growth inhibition assay, MIC; format: cell-based, Serratia marcescens; details: 37° C., 18 h
Procedure: as §1

[5] = system: E. cloacae β-12; assay: Liquid growth inhibition assay, MIC; format: cell-based, Enterobacter cloacae; details: 37° C., 18 h
Procedure: as §1

[6] = system: C. albicans MDM8; assay: Liquid growth inhibition assay, MIC (antifungal); format: cell-based, Candida albicans; details: 37° C., 24 h
Procedure: as §1

[7] = system: C. tropicalis IOC 4560; assay: Liquid growth inhibition assay, MIC (antifungal); format: cell-based, Candida tropicalis; details: 37° C., 24 h
Procedure: as §1

[8] = system: human erythrocytes; assay: Hemolytic activity assay; format: cell-based; details: for Hemolytic activity, concentration of peptide needed to kill 10% of red blood cells / MHC: human erythrocytes, 1 h; for MHC: room temperature, concentration with approximately 0% of hemolytic activity
Procedure: Method. Assays against freshly collected human erythrocytes were performed following protocols described by Pedron et al. 62. Briefly, peptide aliquots at concentrations ranging from 0.1 to 100 μmol L−1 were incubated with a suspension of erythrocytes at room temperature for 1 h. The samples were then centrifuged, and the absorbance of the supernatant was measured at 405 nm. The MHC (maximal non-hemolytic concentration) was determined as the maximal concentration at which 100% of the erythrocytes were viable. The surfactant SDS and PBS buffer were used as positive88, 89 and negative controls, respectively. Sodium heparin was used as an anticoagulant when collecting human blood. Three biological repeats were performed.

[9] = system: Plasmodium gallinaceum sporozoites; assay: Antiplasmodial activity, fluorescence microscopy; format: cell-based; details: for P. gallinaceum (% sporozoites at 0.8 μmol L^−1): fluorescent (propidium iodide stained) sporozoites, 37° C., 1 h; for antiplasmodial activity: P. gallinaceum sporozoites, concentration range tested
Procedure: Method. The activity of the peptides against Plasmodium gallinaceum sporozoites was determined by fluorescence microscopy, as previously described by Silva et. al.^83. Briefly, 9,000 sporozoites were isolated from the glands of infected Aedes aegypti mosquitos and incubated with serially diluted peptides (ranging from 0.1 to 1.6 μmol L^−1) at 37° C. for 1 h. A PBS solution and the surfactant digitonin^84, 85 were used as negative and positive controls, respectively. Propidium iodide was used to stain dead cells. Assays were executed using fluorescence microscopy. Three biological repeats each with three different mosquito batches (n=9) were used.

[10] = Circular dichroism, helical fraction (Lifson-Roig); format: physicochemical; details: peptide 50 μmol L^−1; for Helical fraction (fH) PBS: PBS 10 mmol L^−1, pH 7.4; for Helical fraction (fH) POPC: POPC 10 mmol L^−1; for Helical fraction (fH) POPC:DOPE: POPC:DOPE 3:1, mol:mol; for Helical fraction (fH) POPC:DOPE / Helical fraction (fH) POPC:POPG: 10 mmol L^−1; for Helical fraction (fH) POPC:POPG: POPC:POPG 3:1, mol:mol; for Helical fraction (fH) SDS: SDS 20 mmol L^−1 in water; for Helical fraction (fH) TFE/Water: TFE in water (3:2, v:v)
Procedure: Method. Circular dichroism (CD) assays were performed with a Spectropolarimeter Jasco Mod. J-815 (JascoCorp). CD spectra were obtained in Far-UV (195-260 nm), and analyzed in the following solutions: water, 2,2,2-trifluoroethanol (TFE) in water (3:2, v:v), phosphate buffer saline (PBS, 10 mmol L^−1, pH 7.4), sodium dodecyl sulfate (SDS 20 mmol L^−1) in water, palmitoyloleoylphosphatidylcholine (POPC; 10 mmol L^−1), palmitoyloleoylphosphatidylcholine:dioleylphosphatidylethanolamine (POPC:DOPE; 3:1, mol:mol, 10 mmol L^−1) and palmitoyloleoylphosphatidylcholine:palmitoyloleoylphosphatidylglycerol (POPC:POPG; 3:1, mol:mol, 10 mmol L^−1) at a peptide concentration of 50 μmol L^−1. These experiments were performed as described in detail by Pedron et al.^62.

[11] = Resistance to degradation in fetal bovine serum; format: in vitro ADME; details: fetal bovine serum 25% in water, 37° C.; for remaining at 0.5 h: 30 min, read-out: remaining peptide, 30 min; for remaining at 1 h: read-out: remaining peptide, 1 h; for remaining at 2 h: read-out: remaining peptide, 2 h; for remaining at 4 h: read-out: remaining peptide, 4 h
Procedure: The resistance to proteolytic degradation of the hybrid peptides was assessed by exposing them for 6 h to serum peptidases in a fetal bovine serum solution^68, 69 (FIG. 5a and Table S4). The peptide degradation kinetics were calculated by integrating the peak area of the peak in relation to the peptide at the beginning of the experiment (time=0) and comparing it to the integrated peak area relative to the peptides after exposure to the enzymes at time points: 0.5, 1, 2, 4, and 6 h (FIG. 5a and Table S4). […] However, AV was resistant to degradation against proteases, with almost 40% peptide content remaining after 4 h of exposure (FIG. 5a and Table S4). […] VP was almost entirely degraded after 30 min (22% of peptide remaining). […] D-amino acid substitutions have been used as alternatives to prevent the degradation of AMPs. For example, Qiu et. al. described a protonectin analog with a D-Lys residue in position 10 as an alternative to protonectin; this analog is not degraded and has higher antimicrobial activity against bacteria and fungi than the original peptide.
Methods. Stability assays were performed following the protocol described by Torres et al.^71. Briefly, a peptide solution was added to GIBCO fetal bovine serum diluted to 25% in water and kept at 37° C. The degradation kinetics were monitored by liquid chromatography and the percentage of peptide remaining was calculated by integrating the peptide peak area. The experiments were performed as three independent replicates, and aliquots were taken at 0, 0.5, 1, 2, 4, and 6 h.

[12] = system: bacterial strains; assay: Antimicrobial activity over the panel of strains; format: cell-based; details: range of concentrations tested
Procedure: as §1
Method. The minimal inhibitory concentration (MIC) against the ESKAPE pathogens was determined using the broth microdilution method^81, 82 in Luria-Bertani (LB) medium. The MIC value was defined as the lowest concentration of peptide at which no microbial growth was observed. A. baumannii ATCC19606, E. coli ATCC11775, E. coli AIC221, E. coli AIC222, K. pneumoniae ATCC13883, S. aureus ATCC12600 P. aeruginosa PAO1, and P. aeruginosa PA14 were incubated on agar plates, and after 24 h, three isolated colonies were inoculated to 5 mL of Luria-Bertani (LB) broth and maintained at 37° C. overnight with shaking. Peptides were then added to 96-well polystyrene microtiter plates at concentrations ranging from 0 to 128 μmol L^−1, and 5×10^5 CFU mL^−1 of each bacterium was inoculated in each well. The plates were incubated at 37° C. for 24 h. Bacterial growth was measured using a microplate reader at 610 nm. Three independent replicates were performed.

[13] = system: MCF-7 human breast cancer cells; assay: Anticancer activity, MTT assay; format: cell-based; details: incubation time not stated
Procedure: The anticancer activity assays were performed using MCF-10A human breast epithelial cells and MCF-7 mammary cancer cells as previously described by Pedron et al. 86. Briefly, the day before treatment, the cells were incubated at 37° C. and 5% CO2 for 24 h. The cells were treated with peptides ranging from 12.5 to 100 μmol L^−1 (MCF10-A cells) and 0.8 to 100 μmol L^−1 (MCF-7 cells) for 4 h and 24 h at 37° C., and cell viability was measured using 3-(4,5-Dimethylthiazol-2-yl)-2,5-diphenyltetrazolium bromide (MTT) assays 87. Three independent replicates were performed in each case.

[14] = at 100 μmol L^−1; cited from earlier work
[15] = bovine, fetal bovine serum, 25% in water
[16] = bovine, fetal bovine serum, 25% in water, 4 h

Substance	MIC M. luteus A270 [1] [µM]	MIC S. epidermidis ATCC 12228 [2] [µM]	MIC B. megaterium ATCC 10778 [3] [µM]	MIC S. marcescens ATCC 4112 [4] [µM]	MIC E. cloacae β-12 [5] [µM]	MIC C. albicans MDM8 [6] [µM]	MIC C. tropicalis IOC 4560 [7] [µM]	Hemolytic activity, concentration of peptide needed to kill 10% of red blood cells [8] [µmol/L]	MHC [8] [µmol/L]	P. gallinaceum (% sporozoites at 0.8 μmol L^−1) [9] [%]	antiplasmodial activity [9]	Helical fraction (fH) PBS [10]	Helical fraction (fH) POPC [10]	Helical fraction (fH) POPC:DOPE [10]	Helical fraction (fH) POPC:POPG [10]	Helical fraction (fH) SDS [10]	Helical fraction (fH) TFE/Water [10]	Helical fraction (fH) Water [10]	remaining at 0.5 h [11, 15] [%]	remaining at 1 h [11, 15] [%]	also measured
GLGALLNVIKSGL-NH2 [AV, Gly-Leu-Gly-Ala-Leu-Len-Asn-Val-Ile-Lys-Ser-Gly-Leu]	6.3	>50	>50	50	>50	50	50	100	>100	90	exhibited antiplasmodial activity	0.05	0.03	0.08	0.04	0.31	0.42	0.08	~40	~40	hemolytic activity ([8]; 0.1 to 100 μmol L^−1): minimal hemolytic activity; remaining at 2 h [11, 15]: ~40%; remaining at 4 h [11, 16]: ~40%; remaining peptide, 4 h ([11]; 4 h): ~40%; antimicrobial activity [12]: lower antimicrobial activities than the corresponding template peptides
SLGALINVLKSGG-NH2 [DV, Ser-Leu-Gly-Ala-Leu-Ile-Asn-Val-Leu-Lys-Ser-Gly-Gly]	>50	>50	>50	>50	>50	>50	>50	0.1	0.1	31	did not exhibit significant antiplasmodial activity; also recorded: did not present antiplasmodial activity	0.12	0.08	0.11	0.41	0.62	0.90	0.11	~50	~50	remaining at 2 h [11, 15]: ~50%; remaining at 4 h [11, 16]: ~50%; remaining at 6 h ([11]; bovine, fetal bovine serum, 25% in water, 6 h, read-out: remaining peptide, 6 h): ~50%; antimicrobial activity [12]: No antimicrobial activities were observed; also recorded: did not exhibit antimicrobial activity
SLLSLIRKLIT-NH2 [Decoralin, Ser-Leu-Leu-Ser-Len-Ile-Arg-Lys-Leu-Ile-Thr, reference compound]	0.8	6.3	1.6	3.1	6.3	0.8	1.6	1.6	1.6	0	no activity; also recorded: did not present antiplasmodial activity	0.06	0.23	0.19	0.40	0.22	0.29	0.05	~70	< 30	concentration with activity against MCF-7 human breast cancer cells [13]: 50 µmol/L; remaining at 2 h [11, 15]: < 30%; hemolytic activity of decoralin [14]: low hemolytic activity
